Assay results from BindingDB's records for PubMed 37567057 (Institute of Organic Chemistry and Biochemistry of the …).
pEC50: −log10 of the molar value.

Tests used:
[1] = molecular target: T1, Stimulator of interferon genes protein (Homo sapiens, UniProt Q86WV6); experiment: Agonist activity at STING G230A/R293Q mutant (unknown origin) expressed in digitonin -permeabilized HEK293T cells preincubated for 30 mins followed by washout and measured after 5 hrs by Bright-glo luciferase assay
[2] = molecular target: T1, Stimulator of interferon genes protein; experiment: Agonist activity at STING R71H/G230A/R293Q mutant (unknown origin) expressed in digitonin -permeabilized HEK293T cells preincubated for 30 mins followed by washout and measured after 5 hrs by Bright-glo luciferase assay

T1 sequence (Q86WV6 whole entry): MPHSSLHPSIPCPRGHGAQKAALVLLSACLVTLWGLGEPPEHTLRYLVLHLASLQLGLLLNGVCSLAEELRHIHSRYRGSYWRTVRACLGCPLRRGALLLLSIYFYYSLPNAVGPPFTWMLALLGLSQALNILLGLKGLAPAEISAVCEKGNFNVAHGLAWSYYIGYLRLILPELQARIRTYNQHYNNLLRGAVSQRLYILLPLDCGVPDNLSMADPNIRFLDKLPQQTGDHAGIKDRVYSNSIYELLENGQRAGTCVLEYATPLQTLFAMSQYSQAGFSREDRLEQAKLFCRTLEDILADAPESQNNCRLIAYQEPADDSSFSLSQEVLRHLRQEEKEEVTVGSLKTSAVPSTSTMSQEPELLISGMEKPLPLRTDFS

pEC50 [1]: 7.00
pEC50 [2]: 7.00
SMILES: Nc1ncnc2c1ncn2[C@@H]1O[C@@H]2C=CP(=O)(O)O[C@H]3[C@@H](F)[C@H](n4cnc5c(N)ncnc54)O[C@@H]3COP(=O)(O)O[C@H]2[C@H]1F
